Article PMC13052075, “Synthesis of 1,2,3,4‐Tetrahydroisoquinoline‐3‐Carboxylic Acid‐Embedded Decapeptides: In Silico Studies and In Vitro Evaluation Against Breast Cancer” (ChemistryOpen, 2025)
Values belong to the compound of their own block, whether it stands above or below them. Non-standard residues stand in square brackets, D forms with d. Residues, ends and D or L forms follow the SMILES beside them. Tic = O=C(O)[C@@H]1Cc2ccccc2CN1

Test system: MCF‐7 human breast cancer cell line
Experiment: cells
Conditions: for IC50: 24 h
Description: Using GraphPad Prism software, the IC50 values were determined (Figure 8). After conducting the MTT assay, the absorbance data was entered into the software to generate dose–response curves. The nonlinear regression analysis function, specifically log(inhibitor) verus normalized response was employed to calculate the IC50 values for each compound. This method allowed for accurate determination of the concentration required to inhibit 50% of cell viability.
The MTT assay (3‐[4,5‐dimethylthiazol‐2‐yl]‐2,5‐diphenyltetrazolium bromide) was employed to evaluate the anticancer potential of the synthesized compounds against the MCF‐7 human breast cancer cell line. MCF‐7 cells were seeded into a 96‐well plate at a density of 1 × 10^4 cells per well and allowed to adhere for 24 h. Subsequently, the cells were treated with the test compounds at concentrations of 0.1, 1, 2, 5, and 10 µM, prepared in plain Dulbecco's Modified Eagle Medium (DMEM) media. After 24 h of incubation, MTT solution (100 µg per well; Sigma‐Aldrich) was added, and the plates were incubated for an additional 3–4 h to allow the formation of formazan crystals. The resulting formazan was dissolved in DMSO, and absorbance was measured at 570 nm using a microplate reader.

IC50: 3.38 µM
Compound: CC(C)C[C@H](NC(=O)[C@H](Cc1c[nH]c2ccccc12)NC(=O)[C@H](CO)NC(=O)[C@H](CCC(=O)O)NC(=O)[C@@H]1Cc2ccccc2CN1C(=O)[C@H](CCCCN)NC(=O)[C@H](Cc1c[nH]cn1)NC(=O)[C@H](CCCNC(=N)N)NC(=O)CNC(=O)[C@@H](N)Cc1c[nH]cn1)C(=O)O [DEC‐1] (H-HGRHK[Tic]ESWL-OH)

IC50: 6.1 µM
Compound: CC(C)C[C@H](NC(=O)[C@H](Cc1c[nH]c2ccccc12)NC(=O)[C@H](CO)NC(=O)[C@H](CCC(=O)O)NC(=O)[C@@H]1Cc2ccccc2CN1C(=O)[C@H](Cc1c[nH]cn1)NC(=O)[C@H](CCCNC(=N)N)NC(=O)[C@H](CCCCN)NC(=O)[C@H](CS)NC(=O)[C@@H](N)CCCNC(=N)N)C(=O)O [DEC‐2] (H-RCKRH[Tic]ESWL-OH)

IC50: 4.49 µM
Compound: CC(C)C[C@H](NC(=O)[C@H](Cc1c[nH]c2ccccc12)NC(=O)[C@H](CO)NC(=O)[C@H](CCC(=O)O)NC(=O)[C@@H]1Cc2ccccc2CN1C(=O)[C@H](Cc1c[nH]cn1)NC(=O)[C@H](CCCCN)NC(=O)[C@H](CCCNC(=N)N)NC(=O)[C@H](CS)NC(=O)[C@@H](N)CCCCN)C(=O)O [DEC‐3] (H-KCRKH[Tic]ESWL-OH)

Compound: CC/C(=C(\c1ccccc1)c1ccc(OCCN(C)C)cc1)c1ccccc1 [Tamoxifen, tamoxifen]
inhibition at 0.1 µM (Homo sapiens, MCF7, 24 h, read-out: % Inhibition 0.1 µM): 14.1 ± 5.41%
inhibition at 1 µM (Homo sapiens, MCF7, 24 h, read-out: % Inhibition 1 µM): 29.6 ± 10.4%
inhibition at 2 µM (Homo sapiens, MCF7, 24 h, read-out: % Inhibition 2 µM): 38.2 ± 2.76%
inhibition at 5 µM (Homo sapiens, MCF7, 24 h, read-out: % Inhibition 5 µM): 57.2 ± 5.99%
inhibition at 10 µM (Homo sapiens, MCF7, 24 h, read-out: % Inhibition 10 µM): 92.21 ± 0.73%
